The values that follow come from US20240051931A1, “HDAC INHIBITORS” (University of Pittsburgh - Of the Commonwealth System of …, priority 2020, published 2024).

Assay [1] deals with T1, HDAC 6 (Homo sapiens, UniProt Q9UBN7).
T1 sequence (Q9UBN7 1-1215): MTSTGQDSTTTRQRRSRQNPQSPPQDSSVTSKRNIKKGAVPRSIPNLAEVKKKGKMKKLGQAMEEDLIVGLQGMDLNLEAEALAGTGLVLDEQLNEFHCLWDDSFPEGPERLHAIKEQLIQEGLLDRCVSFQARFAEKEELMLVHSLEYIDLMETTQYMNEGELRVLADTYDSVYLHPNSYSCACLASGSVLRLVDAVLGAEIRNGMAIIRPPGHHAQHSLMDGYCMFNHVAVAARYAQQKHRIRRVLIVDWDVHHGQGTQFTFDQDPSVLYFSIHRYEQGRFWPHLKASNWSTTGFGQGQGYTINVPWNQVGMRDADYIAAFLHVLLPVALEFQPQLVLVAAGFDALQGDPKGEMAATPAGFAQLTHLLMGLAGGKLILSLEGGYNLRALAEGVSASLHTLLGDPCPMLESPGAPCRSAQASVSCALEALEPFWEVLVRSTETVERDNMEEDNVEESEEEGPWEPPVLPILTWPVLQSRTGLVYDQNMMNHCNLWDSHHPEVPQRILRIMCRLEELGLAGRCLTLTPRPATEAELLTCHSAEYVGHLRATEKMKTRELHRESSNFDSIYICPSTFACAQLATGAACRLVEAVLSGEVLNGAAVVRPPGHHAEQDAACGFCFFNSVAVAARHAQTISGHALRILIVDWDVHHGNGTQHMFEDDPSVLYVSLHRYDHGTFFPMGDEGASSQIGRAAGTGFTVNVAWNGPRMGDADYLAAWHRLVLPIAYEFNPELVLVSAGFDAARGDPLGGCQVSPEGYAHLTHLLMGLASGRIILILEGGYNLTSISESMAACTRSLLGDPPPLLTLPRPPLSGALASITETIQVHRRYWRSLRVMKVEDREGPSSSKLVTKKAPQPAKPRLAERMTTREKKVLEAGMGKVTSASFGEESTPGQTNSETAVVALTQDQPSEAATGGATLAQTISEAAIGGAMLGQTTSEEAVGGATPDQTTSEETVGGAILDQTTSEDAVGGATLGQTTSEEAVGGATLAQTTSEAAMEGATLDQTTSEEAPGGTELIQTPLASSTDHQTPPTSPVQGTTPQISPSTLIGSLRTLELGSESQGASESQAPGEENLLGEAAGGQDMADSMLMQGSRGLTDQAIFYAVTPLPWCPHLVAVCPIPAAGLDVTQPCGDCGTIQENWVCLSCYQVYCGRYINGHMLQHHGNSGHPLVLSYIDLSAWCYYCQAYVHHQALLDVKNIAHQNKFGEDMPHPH
The assay is described as follows: HDAC 6 activity at fixed concentration (Table 2). The assay is classed as biochemical. Details: unit not given here. Particulars: compound at 50 nM.

Assay [2] has as its system PanHDAC. Nature of the assay: PanHDAC activity at fixed concentration (Table 2). Type of assay: biochemical. Details: unit not given here. The conditions noted are these: compound at 1 uM.

`O=C(Nc1cccc2c1O[C@@H](C(=O)NO)CC2)OCc1ccccc1Cl` [Compound 1-34]: in assay [1], the “HDAC 6 at 50 nM” value turned out to be 13. In assay [2], the “PanHDAC at 1 uM” value came to 0.
For `Cn1ccc2cc(-c3ccc4c(c3)CCC(C(=O)NO)O4)ccc21` (stereo not drawn) [Compound 1-28], in that order: 44 and 0.
For `COc1ccccc1COc1ccc2c(c1)OC(C(=O)NO)CC2` (stereo not drawn) [Compound 1-47] the same measures were 53 and 0.
For `O=C(Nc1ccc2c(c1)CCC(C(=O)NO)O2)c1ccc(S(F)(F)(F)(F)F)cc1` (stereo not drawn) [Compound 1-6], in assay [1], the “HDAC 6 at 50 nM” value worked out at 41. Besides, the “PanHDAC at 1 uM” value in assay [2] is 0.
For `O=C(NO)[C@H]1CCc2ccccc2O1` [Compound 1-4] the same measures were 47 and 0.
For `O=C(Nc1cccc2c1OC(C(=O)NO)CC2)OCc1ccccc1` (stereo not drawn) [Compound 1-8] the same measures were 0 and 0.
For `CC(C)COC(=O)Nc1cccc2c1OC(C(=O)NO)CC2` (stereo not drawn) [Compound 1-30] the same measures were 29 and 0.
Turning to `O=C(NO)C1CCc2ccc(OCCc3ccccc3)cc2O1` (stereo not drawn) [Compound 1-49], the “HDAC 6 at 50 nM” value in assay [1] was 0. In assay [2], the “PanHDAC at 1 uM” value amounted to 0.
Regarding `O=C(Nc1cccc2c1O[C@H](C(=O)NO)CC2)OCc1ccc(Cl)c(Cl)c1` [Compound 1-63], in assay [1], the “HDAC 6 at 50 nM” value was found to be 45. Further, the “PanHDAC at 1 uM” value in assay [2] was 0.
For `O=C(NO)C1CCc2cc(-c3ccc(Cl)c(Cl)c3)ccc2O1` (stereo not drawn) [Compound 1-21] the same measures were 73 and 0.
For `O=C(NCc1cccc(S(F)(F)(F)(F)F)c1)Nc1cccc2c1OC(C(=O)NO)CC2` (stereo not drawn) [Compound 1-39], in that order: 34 and 0.
For `CS(=O)(=O)Nc1cccc2c1OC(C(=O)NO)CC2` (stereo not drawn) [Compound 1-37] the same measures were 2 and 6.
`O=C(NO)[C@@H]1CCc2ccccc2O1` [Compound 1-3]: the “HDAC 6 at 50 nM” value in assay [1] is 46. Moreover, the “PanHDAC at 1 uM” value in assay [2] stood at 0.
For `O=C(NO)C1CCc2cc(NS(=O)(=O)c3cccc4ccccc34)ccc2O1` (stereo not drawn) [Compound 1-51] the same measures were 64 and 8.
For `O=C(NO)C1CCc2ccc(OCc3ccccn3)cc2O1` (stereo not drawn) [Compound 1-24], in that order: 23 and 0.
For `O=C(NO)C1CCc2ccc(OCc3ccc(Cl)cc3)cc2O1` (stereo not drawn) [Compound 1-50] the same measures were 48 and 0.
With `O=C(NO)[C@@H]1CCc2ccc(OCc3ccccc3Cl)cc2O1` [Compound 1-65], the “HDAC 6 at 50 nM” value in assay [1] is reported as 17. For the same molecule, the “PanHDAC at 1 uM” value in assay [2] is 0.
For `O=C(NCc1ccc(Cl)c(C(F)(F)F)c1)Nc1ccc2c(c1)CCC(C(=O)NO)O2` (stereo not drawn) [Compound 1-15], the “HDAC 6 at 50 nM” value in assay [1] was 26. Moreover, the “PanHDAC at 1 uM” value in assay [2] is 0.
For `O=C(NO)C1CCc2cccc(NS(=O)(=O)CC(F)(F)F)c2O1` (stereo not drawn) [Compound 1-31] the same measures were 41 and 0.
Consider `O=C(NO)C1CCc2cccc(NS(=O)(=O)c3cccc4ccccc34)c2O1` (stereo not drawn) [Compound 1-35], for which the “HDAC 6 at 50 nM” value in assay [1] is 0. Further, in assay [2], the “PanHDAC at 1 uM” value came out at 0.
As for `O=C(NO)C1CCc2cc(C#CCCC(=O)N3CCc4ccccc4C3)ccc2O1` (stereo not drawn) [Compound 1-19], the “HDAC 6 at 50 nM” value in assay [1] is given as 27. For the same molecule, in assay [2], the “PanHDAC at 1 uM” value worked out at 0.
For `O=C(Nc1ccc2c(c1)CC[C@@H](C(=O)NO)O2)c1ccc(-c2ccccc2)cc1` [Compound 1-57] the same measures were 7 and 0.
For `O=C(NO)[C@@H]1CCc2ccc(OCc3ccc(Cl)cc3)cc2O1` [Compound 1-59], in that order: 0 and 0.
For the molecule `Cn1ccc2cc(-c3ccc4c(c3)OC(C(=O)NO)CC4)ccc21` (stereo not drawn) [Compound 1-55], the “HDAC 6 at 50 nM” value in assay [1] was 44. In assay [2], the “PanHDAC at 1 uM” value worked out at 0.
For `O=C(Cc1c[nH]c2ccccc12)Nc1ccc2c(c1)CCC(C(=O)NO)O2` (stereo not drawn) [Compound 1-41] the same measures were 55 and 0.
Turning to `O=C(Nc1ccc(F)cc1)Nc1ccc2c(c1)CCC(C(=O)NO)O2` (stereo not drawn) [Compound 1-46], the “HDAC 6 at 50 nM” value in assay [1] is reported as 48. Moreover, the “PanHDAC at 1 uM” value in assay [2] was 0.
For `O=C(NO)C1CCc2ccc(-c3ccc(Cl)c(Cl)c3)cc2O1` (stereo not drawn) [Compound 1-54] the same measures were 39 and 0.
`O=C(NO)C1CCc2cc(CCCOc3ccc(F)cc3)ccc2O1` (stereo not drawn) [Compound 1-7]: the “HDAC 6 at 50 nM” value in assay [1] is reported as 35. In addition, the “PanHDAC at 1 uM” value in assay [2] came out at 0.
Consider `COc1ccccc1COC(=O)Nc1cccc2c1O[C@H](C(=O)NO)CC2` [Compound 1-66], for which the “HDAC 6 at 50 nM” value in assay [1] was 31. For the same molecule, the “PanHDAC at 1 uM” value in assay [2] came to 0.
For `O=C(NO)[C@@H]1CCc2ccc(-c3ccc(Cl)c(Cl)c3)cc2O1` [Compound 1-61], in that order: 41 and 0.
For `O=C(NO)C1CCc2ccc(OCCOc3ccc(F)cc3)cc2O1` (stereo not drawn) [Compound 1-25], in that order: 0 and 0.
For `COc1ccc(-c2ccc3c(c2)OC(C(=O)NO)CC3)cc1` (stereo not drawn) [Compound 1-56], the “HDAC 6 at 50 nM” value in assay [1] was 13. In assay [2], the “PanHDAC at 1 uM” value was determined as 0.
Regarding `O=C(Nc1ccc2c(c1)CC[C@@H](C(=O)NO)O2)c1cc(Cl)cc(Cl)c1` [Compound 1-26], the “HDAC 6 at 50 nM” value in assay [1] is listed as 20. Also, the “PanHDAC at 1 uM” value in assay [2] turned out to be 0.
For `COc1cccc(COC(=O)Nc2cccc3c2O[C@H](C(=O)NO)CC3)c1` [Compound 1-60] the same measures were 33 and 0.
As for `O=C(NO)C1CCc2cccc(NS(=O)(=O)c3ccc(F)cc3)c2O1` (stereo not drawn) [Compound 1-2], in assay [1], the “HDAC 6 at 50 nM” value worked out at 5. The “PanHDAC at 1 uM” value in assay [2] stood at 0.
For `COc1ccc(CNC(=O)Nc2ccc3c(c2)CCC(C(=O)NO)O3)cc1` (stereo not drawn) [Compound 1-52], in that order: 0 and 0.
For `O=C(NO)C1CCc2cc(NS(=O)(=O)c3cc(Cl)cc(Cl)c3)ccc2O1` (stereo not drawn) [Compound 1-14] the same measures were 0 and 21.
As for `O=C(NO)C1CCc2cc(CCCOC(=O)N3CCc4ccccc4C3)ccc2O1` (stereo not drawn) [Compound 1-16], the “HDAC 6 at 50 nM” value in assay [1] amounted to 73. Moreover, the “PanHDAC at 1 uM” value in assay [2] was 0.
Take `O=C(NO)C1CCc2cc(Cl)ccc2O1` (stereo not drawn) [Compound 1-1]: the “HDAC 6 at 50 nM” value in assay [1] was 33. The “PanHDAC at 1 uM” value in assay [2] came to 0.
For `Cc1ccc(COc2ccc3c(c2)OC(C(=O)NO)CC3)cc1` (stereo not drawn) [Compound 1-44] the same measures were 29 and 0.
As for `O=C(NO)[C@H]1CCc2ccc(OCc3ccc(Cl)cc3)cc2O1` [Compound 1-58], in assay [1], the “HDAC 6 at 50 nM” value turned out to be 31. For the same molecule, the “PanHDAC at 1 uM” value in assay [2] came out at 0.
For `O=C(NO)C1CCc2cc(-c3ccc(F)cc3)ccc2O1` (stereo not drawn) [Compound 1-18], in that order: 68 and 0.
As for `O=C(NCCc1c[nH]c2ccccc12)Nc1cccc2c1OC(C(=O)NO)CC2` (stereo not drawn) [Compound 1-36], the “HDAC 6 at 50 nM” value in assay [1] stood at 6. The “PanHDAC at 1 uM” value in assay [2] was 0.
For `O=C(NCc1cccc(S(F)(F)(F)(F)F)c1)Nc1ccc2c(c1)CCC(C(=O)NO)O2` (stereo not drawn) [Compound 1-43] the same measures were 34 and 0.
For `O=C(Nc1cccc2c1O[C@H](C(=O)NO)CC2)OCc1ccc(Cl)cc1` [Compound 1-62], in that order: 32 and 0.
For `O=C(NO)C1CCc2ccc(OCc3ccc(F)cc3)cc2O1` (stereo not drawn) [Compound 1-48] the same measures were 0 and 0.
With `O=C(NO)C1CCc2cc(C#CCOc3ccc(F)cc3)ccc2O1` (stereo not drawn) [Compound 1-10], the “HDAC 6 at 50 nM” value in assay [1] amounted to 42. For the same molecule, in assay [2], the “PanHDAC at 1 uM” value is on record as 0.
With `C#Cc1ccc2c(c1)CCC(C(=O)NO)O2` (stereo not drawn) [Compound 1-11], the “HDAC 6 at 50 nM” value in assay [1] is 25. Also, the “PanHDAC at 1 uM” value in assay [2] is given as 3.
